Test results: article PMC11420952, “A Chemical Approach to Assess the Impact of Post-translational Modification on MHC Peptide Binding and Effector Cell Engagement” (ACS Chemical Biology, 2024)
Where no end group is shown, it is not given here.

Target: T1, H-2K^b (Mus musculus, UniProt P01901)
T1 construct: endogenous in cells; host or cells: RMA-S cells (TAP-deficient)
T1 sequence (P01901 22-369): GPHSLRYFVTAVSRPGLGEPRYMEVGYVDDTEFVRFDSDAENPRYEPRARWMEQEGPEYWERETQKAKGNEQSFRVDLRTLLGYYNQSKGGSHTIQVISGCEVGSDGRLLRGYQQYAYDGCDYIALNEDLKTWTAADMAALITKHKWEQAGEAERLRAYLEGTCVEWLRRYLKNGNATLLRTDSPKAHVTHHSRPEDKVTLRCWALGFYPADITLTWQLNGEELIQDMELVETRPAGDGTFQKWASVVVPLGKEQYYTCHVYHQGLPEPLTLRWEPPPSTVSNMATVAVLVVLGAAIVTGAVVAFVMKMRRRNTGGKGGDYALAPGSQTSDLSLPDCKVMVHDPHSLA
T1 sequence (P01887 21-119 partner): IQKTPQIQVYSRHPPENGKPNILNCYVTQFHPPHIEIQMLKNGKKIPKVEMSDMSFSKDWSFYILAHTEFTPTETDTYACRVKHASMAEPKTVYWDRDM
Assay: cell-based
Settings: sarsWT concentration scan; 1 h 26 °C then 6 h 37 °C; APC anti-mouse H-2K^b antibody, flow cytometry; Figure S2, mean ± SD n = 3; read-out: EC50 of pMHC stabilization on RMA-S cells

For ESIVRFPNI [sarsWT], the EC50 was 1700 nM.
